According to patent US10888549B2, “Pharmaceutical agents targeting cancer stem cells” (THE JOHNS HOPKINS UNIVERSITY, priority 2016, dated 2021):

Columns and labels:
[1] = system: SOX2; experiment: SOX2 expression by western blotting / flow cytometry; format: cell-based, human
Description: (§1) Whole cell lysates were extracted using RIPA buffer (Thermo Scientific) supplemented with 10 μL/mL Halt™ Protease Inhibitor Cocktail Kit (Life Technologies) and 30 μL/mL Halt™ Phosphatase Inhibitor Cocktail Kit (Life Technologies). The protein concentrations were determined using a Pierce™ BCA Protein Assay Kit (Life Technologies), and the protein were separated on NuPAGE® 4-12% Bis-Tris Gel (Life Technologies) according to the manufacturer's protocol. COX2 (D5H5), NANOG (D73G4), OCT4 (D7O5Z), CD133 (A3G6K), Snail (C15D3), ZEB1 (D80D3), Vimentin (D21H3), CDH2 (D4R1H), CDH1 (24E10), p-EGFR (D7A5), EGFR (D38B1), p-AKT (D9E), AKT (cat #, 9272), p-ERK (D13.14.4E), ERK (137F5), p-YAP1 (D9W2I), p-Src (cat #, 2101), Src (36D10), DNMT1 (D63A6), DNMT3A (D23G1), and DNMT3B (D7O7O) antibodies were obtained from Cell Signaling Technology (Danvers, Mass., USA), except for SOX2 (EPR3131; Abcam, Cambridge, USA), YAP1 (ab52771; Abcam), CD24 (cat #, AF5247-SP; R&D Systems, Minneapolis USA) and β-actin (A2228; Sigma-Aldrich). Secondary horseradish peroxidase (HRP)-conjugated antibodies were obtained from Cell Signaling Technology, and chemiluminescent detection of HRP-labeled antibodies was performed using Amersham ECL Prime Western Blotting Detection Reagent (GE Healthcare, Piscataway, USA). As loading control, β-actin was used.
For extracellular staining, cells (1×10^6/100 μL stain buffer) were incubated with PE-Vio770-conjugated anti-human CD133 (293C3; Miltenyi Biotec, Auburn, USA) or PE-conjugated anti-human CD24 antibody (cat #, 560991; BD Biosciences) for 30 min at 4° C. in dark. PE-Vio770-conjugated Isotype (cat #, 130-098-563; Miltenyi Biotec) and PE-conjugated IgG2a, κ Isotype (cat #, 555574; BD Biosciences) were used as control for CD133 and CD24 staining, respectively. Staining for intracellular SOX2 was carried out using the BD Cytofix/Cytoperm Fixation/Permeabilization Kit (BD Biosciences) according to manufacturer's protocol. The cells were incubated with Alexa Fluor 647-conjugated anti-SOX2 antibody (cat #, 560302; BD Biosciences) for 40 min at 4° C. in dark. Alexa Fluor 647-conjugated anti-IgG2a, κ Isotype (cat #, 558053; BD Biosciences) was used as control. Data were acquired on a BD FACSCalibur flow cytometer (BD Biosciences) using BD CellQuest Pro software (BD Biosciences) and analyzed with FlowJo software v10.1 (Tree Star, Ashland, USA).

[2] = system: YAP1; experiment: YAP1 expression by western blotting; format: cell-based, human
Description: as §1

[3] = system: promoters of miR-126, miR-296, and miR-200c; experiment: Bisulfite sequencing of miRNA promoters; format: cell-based, human; settings: spheroid cells
Description: Cell pellets were digested with 1% sodium dodecyl sulfate and 50 μg/mL proteinase K (Roche, Nutley, USA) at 48° C. overnight. Isolation of genomic DNA from cell lines was performed with the phenol-chloroform extraction protocol followed by ethanol precipitation. Bisulfite treatment was conducted using an EpiTect Bisulfite Kit (QIAGEN, Valencia, USA), and was subsequently amplified via PCR using primers as shown in the following table. PCR products were purified using the QIAquick Gel Extraction kit (Qiagen), and sequenced by Genewiz DNA sequencing service (Genewiz, South Plainfield, USA). The data were analyzed using the Sequence Scanner v1.0 software (Life technologies). A methylation frequency of ≥50% of total CpG sites within the amplified region was considered “methylation-positive”.

[4] = system: panel of miRNAs; experiment: Expression of a panel of miRNAs in BFTC 905 cells; format: cell-based, human
Description: Total RNA from cell lines was isolated using the RNeasy Plus Mini kit (Qiagen, Valencia, USA) according to the manufacturer's protocol. Total RNA extraction from bladder tissue was performed with the QIAzol Lysis Reagent (Qiagen) followed by phenol extraction and ethanol precipitation. Total RNA was eluted in DEPC treated water and stored at −80° C. Total RNA extraction from urine was performed using the MirVana miRNA Isolation Kit (Ambion, Austin, USA). These total RNA were converted to cDNA using the SuperScript III First-Strand Synthesis System (Life technologies, Carlsbad, USA), which was then used as a template for Q-RT-PCR. Q-RT-PCR was performed using the Fast SYBR Green Master Mix (Thermo Fisher Scientific, Waltham, USA) on a 7900HT Fast Real-Time PCR System (Life technologies) in triplicate. Micro RNA (miRNA) extraction was performed using the MirVana miRNA Isolation Kit, and was reverse transcribed using TaqMan reverse transcription kit (Applied Biosystems, Foster City, USA) and miRNA-specific RT primers provided with TaqMan microRNA assays (Applied Biosystems). Q-RT-PCR for miRNAs was performed using the TaqMan Universal PCR Master Mix according to the manufacturer's protocol. SDS software (Applied Biosystems) was used to determine cycle threshold (Ct) values. Expression level was quantified relative to β-actin for mRNA and RNU6B for miRNA using the 2-ΔΔCt method (12).

[5] = Body weight of treated mice; format: in vivo; settings: compared with control
Description: For celecoxib and/or VP treatment, celecoxib (5 mg/kg) was administered via intraperitoneal (i.p.) injection once a day (17), and VP (50 mg/kg) was administered via i.p. every other day (18). EP4 antagonist ONO-AE3-208 (10 mg/kg) was administered via i.p. once a day (19). Control was applied with same volume (100 μL per injection) of 10% dimethyl sulphoxide in […] (Sigma-Aldrich). For GEM and CDDP (GC) treatment (i.p.), CDDP (6 mg/kg) was only applied after the first GEM (60 mg/kg) treatment on day 2, followed by three consecutive treatments of GEM on day 5, 8 and 11 (17). The next cycle was started on day 18, and the treatment was continued until tumor reached 2 cm in diameter. For erlotinib treatment, the mice were treated once a day, 6 days per week, by oral gavage with erlotinib (100 mg/kg) or control (PBS containing 0.5% methyl cellulose (Sigma-Aldrich) and 0.1% TWEEN 80) (20). Tumor size was measured at least every three days. […] To establish xenograft model with acquired resistance to erlotinib, erlotinib sensitive 5637 cells were injected subcutaneously into the both flanks of 4-5 week-old NSG mice, and the tumors were consecutively passaged from NSG mice treated with erlotinib and celecoxib until the development of refractory tumors. […]

[6] = COX2 inhibitor added to erlotinib, basal-type cells
[7] = agent alone, bladder cancer cells

With `Cc1ccc(-c2cc(C(F)(F)F)nn2-c2ccc(S(N)(=O)=O)cc2)cc1` [celecoxib, Celecoxib] the SOX2 expression [1, 6] was “impaired”, the SOX2 expression [1, 7] was “repressed” and the YAP1 expression [2, 6] was “no longer able to induce”. The YAP1 expression [2, 7] was “induced”, the “promoter methylation of miRNAs (miR-126, miR-296, miR-200c)” value [3] was “demethylated” and the “expression of several miRNAs” value [4] was “induced”. The “body weight loss of mice” value [5] was “did not observe body weight loss”.
